Values after ≈ are worked out from the molar mass of the structure shown.
Assays:
Assay type in all cases: functional
[1] = test system: Vibrio cholerae; experiment: Antibacterial activity against Vibrio cholerae assessed as growth inhibition after 18 hr by broth microdilution method
[2] = test system: Staphylococcus aureus; experiment: Antibacterial activity against Staphylococcus aureus assessed as growth inhibition after 18 hr by broth microdilution method
[3] = test system: Mycobacterium tuberculosis; experiment: Antitubercular activity against Mycobacterium tuberculosis H37Rv assessed as growth inhibition after 5 days by microplate alamar blue assay; conditions: 120 h
[4] = test system: Bacillus subtilis; experiment: Antibacterial activity against Bacillus subtilis assessed as growth inhibition after 18 hr by broth microdilution method
[5] = test system: Escherichia coli; experiment: Antibacterial activity against Escherichia coli assessed as growth inhibition after 18 hr by broth microdilution method

Row | Compound | MIC [1] [µg/mL] | MIC [2] [µg/mL] | MIC [3] [µg/mL] | MIC [4] [µg/mL] | MIC [5] [µg/mL]
1 | CCN(CC)c1ccc2cc(-c3nc4sc(S(N)(=O)=O)nn4c3CN3CCCC3)c(=O)oc2c1 | 8 (≈ 15.9 µM) | 62.5 (≈ 124 µM) | 25 (≈ 49.7 µM) | 62.5 (≈ 124 µM) | 8 (≈ 15.9 µM)
2 | CCN(CC)c1ccc2cc(-c3nc4sc(S(N)(=O)=O)nn4c3SC#N)c(=O)oc2c1 | 31.2 (≈ 65.6 µM) | 62.5 (≈ 131 µM) | 12.5 (≈ 26.2 µM) | 62.5 (≈ 131 µM) | 31.2 (≈ 65.6 µM)
3 | CCN(CC)c1ccc2cc(-c3nc4sc(S(=O)(=O)/N=C/N(C)C)nn4c3C=O)c(=O)oc2c1 | 4 (≈ 7.96 µM) | 16 (≈ 31.8 µM) | 1.6 (≈ 3.18 µM) | 16 (≈ 31.8 µM) | 4 (≈ 7.96 µM)
4 | CCN(CC)c1ccc2cc(-c3nc4sc(S(=O)(=O)/N=C/N(C)C)nn4c3CO)c(=O)oc2c1 | 8 (≈ 15.9 µM) | 31.2 (≈ 61.9 µM) | 3.12 (≈ 6.19 µM) | 31.2 (≈ 61.9 µM) | 8 (≈ 15.9 µM)
5 | CCN(CC)c1ccc2cc(-c3nc4sc(S(=O)(=O)/N=C/N(C)C)nn4c3/C=N/O)c(=O)oc2c1 | 16 (≈ 30.9 µM) | 62.5 (≈ 121 µM) | 25 (≈ 48.3 µM) | 62.5 (≈ 121 µM) | 16 (≈ 30.9 µM)
6 | CCN(CC)c1ccc2cc(-c3nc4sc(S(=O)(=O)/N=C/N(C)C)nn4c3C#N)c(=O)oc2c1 | 16 (≈ 32 µM) | 62.5 (≈ 125 µM) | 25 (≈ 50 µM) | 62.5 (≈ 125 µM) | 16 (≈ 32 µM)
7 | CCN(CC)c1ccc2cc(-c3nc4sc(S(=O)(=O)/N=C/N(C)C)nn4c3C3SCC(=O)N3c3ccccc3)c(=O)oc2c1 (stereo unspecified) | 1 (≈ 1.53 µM) | 16 (≈ 24.5 µM) | 0.8 (≈ 1.23 µM) | 16 (≈ 24.5 µM) | 1 (≈ 1.53 µM)
8 | CCN(CC)c1ccc2cc(-c3nc4sc(S(=O)(=O)/N=C/N(C)C)nn4c3/C=N/NC(=N)N)c(=O)oc2c1 | 1 (≈ 1.79 µM) | 16 (≈ 28.6 µM) | 0.8 (≈ 1.43 µM) | 16 (≈ 28.6 µM) | 1 (≈ 1.79 µM)
9 | CCN(CC)c1ccc2cc(-c3cn4nc(S(N)(=O)=O)sc4n3)c(=O)oc2c1 | 31.2 (≈ 74.5 µM) | 62.5 (≈ 149 µM) | 3.12 (≈ 7.45 µM) | 62.5 (≈ 149 µM) | 31.2 (≈ 74.5 µM)
10 | CCN(CC)c1ccc2cc(-c3nc4sc(S(N)(=O)=O)nn4c3CN3CCOCC3)c(=O)oc2c1 | 31.2 (≈ 60.3 µM) | 62.5 (≈ 121 µM) | 25 (≈ 48.2 µM) | 62.5 (≈ 121 µM) | 31.2 (≈ 60.3 µM)
11 | CCN(CC)c1ccc2cc(-c3nc4sc(S(N)(=O)=O)nn4c3CN3CCCCC3)c(=O)oc2c1 | 31.2 (≈ 60.5 µM) | 62.5 (≈ 121 µM) | 25 (≈ 48.4 µM) | 62.5 (≈ 121 µM) | 31.2 (≈ 60.5 µM)
12 | CCN(CC)c1ccc2cc(-c3nc4sc(S(N)(=O)=O)nn4c3Br)c(=O)oc2c1 | 16 (≈ 32.1 µM) | 62.5 (≈ 125 µM) | 6.25 (≈ 12.5 µM) | 62.5 (≈ 125 µM) | 16 (≈ 32.1 µM)
13 | CCN(CC)c1ccc2cc(-c3nc4sc(S(N)(=O)=O)nn4c3N=O)c(=O)oc2c1 | 31.2 (≈ 69.7 µM) | 125 (≈ 279 µM) | 50 (≈ 111 µM) | 125 (≈ 279 µM) | 31.2 (≈ 69.7 µM)
14 | CCn1cc(C(=O)O)c(=O)c2cc(F)c(N3CCNCC3)cc21 [NORFLOXACIN] | 1 (≈ 3.13 µM) | 2 (≈ 6.26 µM) |  | 2 (≈ 6.26 µM) | 16 (≈ 50.1 µM)
15 | NC(=O)c1cnccn1 [PYRAZINAMIDE] |  |  | 3.12 (≈ 25.4 µM) |  | 
16 | CN[C@@H]1[C@H](O[C@H]2[C@H](O[C@H]3[C@H](O)[C@@H](O)[C@H](N=C(N)N)[C@@H](O)[C@@H]3N=C(N)N)O[C@@H](C)[C@]2(O)C=O)O[C@@H](CO)[C@H](O)[C@H]1O [STREPTOMYCIN] |  |  | 6.25 (≈ 10.7 µM) |  | 

— ChEMBL document CHEMBL3046572, “Synthesis and evaluation of antibacterial and antitubercular activities of some novel imidazo[2,1-b][1,3,4]thiadiazole derivatives” (2013)
